Earlier results on 2 compounds are cited in patent US20090191608A1, “Pancreatic Islet Cell Preparation and Transplantation” (Baylor Research Institute, priority 2008, published 2009).

For data set [1] the following is noted: in vivo.

For the compound Enoxaparin [Lovenox], the “Incidence of heparin-induced thrombocytopenia” value (in vivo) is reported as 0.2%.

`CO[C@H]1C[C@@H]2CC[C@@H](C)[C@@](O)(O2)C(=O)C(=O)N2CCCC[C@H]2C(=O)O[C@H]([C@H](C)C[C@@H]2CC[C@@H](O)[C@H](OC)C2)CC(=O)[C@H](C)/C=C(\C)[C@@H](O)[C@@H](OC)C(=O)[C@H](C)C[C@H](C)/C=C/C=C/C=C/1C` [Sirolimus]: in data set [1], the Half-life result is listed as “approximately 3 days” and the “Time to reach a new steady-state level after the change of dose” value is 2 weeks. Also, where the note is “most common side effect”, the “Occurrence of mouth ulcers” value was “up to 85%”.
